# Reference: paper PMC5474674, “D-BMAP18 Antimicrobial Peptide Is Active In vitro, Resists to Pulmonary Proteases but Loses Its Activity in a Murine Model of Pseudomonas aeruginosa Lung Infection” (Frontiers in Chemistry, 2017)
# Where a SMILES comes first, the peptide text is derived from it. [ ]: non-standard residue; d: D form.
# Tests used:
# P. aeruginosa RP73 = format: in vivo, mouse; settings: mouse, in vivo
# Procedure: C57/Bl6NCrl mice (n = 8/group) were intratracheally challenged with 1 × 10^7 cells P. aeruginosa RP73 clinical strain, and 5 min later a single dose of D-BMAP18 at different concentrations (0.5, 1, and 2 mg/kg) was intratracheally administrated. Sterile distilled water alone or tobramycin [10 mg/kg] (Sigma-Aldrich S.r.l.), were used respectively as negative and positive control. […] Subsequently, lungs were homogenized (24,000 rpm) on ice in 1 ml of sterile PBS by using Ultra-Turrax T25-Basic homogenizer (IKA-Werke GmbH & Co. KG, Germany). Ten-fold serial dilutions of lung homogenates were plated on MH agar (Oxoid SpA), and the number of colony-forming units (CFU) was counted after incubation at 37°C for 24 h.
# P. aeruginosa = format: cell-based, Pseudomonas aeruginosa; settings: 24 h
# Procedure: P. aeruginosa, S. maltophilia, and Staphylococcus aureus strains were originally isolated from respiratory specimens of CF patients admitted to the “Bambino Gesù” Children Hospital in Rome and previously tested with AMPs (Pompilio et al., [2012]). P. aeruginosa RP73, and PAO1 were tested as reference strains.
# (§1) MIC values were determined using the broth microdilution method.
# S. maltophilia SM103 = assay: MIC/MBC broth microdilution; format: cell-based, Stenotrophomonas maltophilia; settings: D-BMAP18, strain SM103, n = 6
# Procedure: as §1
# S. maltophilia SM106 = assay: MIC/MBC broth microdilution; format: cell-based, Stenotrophomonas maltophilia; settings: D-BMAP18, strain SM106, n = 6
# Procedure: as §1
# S. maltophilia SM110 = assay: MIC/MBC broth microdilution; format: cell-based, Stenotrophomonas maltophilia; settings: D-BMAP18, strain SM110, n = 6
# Procedure: as §1
# S. maltophilia SM105 = assay: MIC/MBC broth microdilution; format: cell-based, Stenotrophomonas maltophilia; settings: D-BMAP18, strain SM105, n = 6
# Procedure: as §1
# S. maltophilia SM136 = assay: MIC/MBC broth microdilution; format: cell-based, Stenotrophomonas maltophilia; settings: D-BMAP18, strain SM136, n = 6
# Procedure: as §1
# S. maltophilia SM122 = assay: MIC/MBC broth microdilution; format: cell-based, Stenotrophomonas maltophilia; settings: D-BMAP18, strain SM122, n = 6
# Procedure: as §1
# S. maltophilia SM126 = assay: MIC/MBC broth microdilution; format: cell-based, Stenotrophomonas maltophilia; settings: D-BMAP18, strain SM126, n = 6
# Procedure: as §1
# S. maltophilia SM130 = assay: MIC/MBC broth microdilution; format: cell-based, Stenotrophomonas maltophilia; settings: D-BMAP18, strain SM130, n = 6
# Procedure: as §1
# S. maltophilia SM143 = assay: MIC/MBC broth microdilution; format: cell-based, Stenotrophomonas maltophilia; settings: D-BMAP18, strain SM143, n = 6
# Procedure: as §1
# S. maltophilia SM123 = assay: MIC/MBC broth microdilution; format: cell-based, Stenotrophomonas maltophilia; settings: D-BMAP18, strain SM123, n = 6
# Procedure: as §1
# S. maltophilia SM120 = assay: MIC/MBC broth microdilution; format: cell-based, Stenotrophomonas maltophilia; settings: D-BMAP18, strain SM120, n = 6
# Procedure: as §1
# S. maltophilia SM139 = assay: MIC/MBC broth microdilution; format: cell-based, Stenotrophomonas maltophilia; settings: D-BMAP18, strain SM139, n = 6
# Procedure: as §1
# S. aureus SA5 = assay: MIC broth microdilution; format: cell-based, Staphylococcus aureus; settings: D-BMAP18, strain SA5, MH broth, 37°C 24 h, n = 6
# Procedure: as §1
# S. aureus SA3 = assay: MIC broth microdilution; format: cell-based, Staphylococcus aureus; settings: D-BMAP18, strain SA3, MH broth, 37°C 24 h, n = 6
# Procedure: as §1
# S. aureus SA7 = assay: MIC broth microdilution; format: cell-based, Staphylococcus aureus; settings: D-BMAP18, strain SA7, MH broth, 37°C 24 h, n = 6
# Procedure: as §1
# S. aureus SA4 = assay: MIC broth microdilution; format: cell-based, Staphylococcus aureus; settings: D-BMAP18, strain SA4, MH broth, 37°C 24 h, n = 6
# Procedure: as §1
# S. aureus SA1 = settings: D-BMAP18; strain SA1; broth microdilution, MH broth, 37°C 24 h; n = 6
# [1] = broth microdilution, MH broth, 37°C 24 h
# [2] = kills at least 99.9% of inoculum
structure (smiles),measurement,setting,value
CC(C)C[C@@H](NC(=O)[C@@H](CCCCN)NC(=O)[C@@H](CCCCN)NC(=O)[C@@H](Cc1ccccc1)NC(=O)[C@@H](CC(C)C)NC(=O)[C@@H](CCCCN)NC(=O)[C@@H](CCCCN)NC(=O)[C@@H](Cc1ccccc1)NC(=O)[C@@H](CCCCN)NC(=O)[C@@H](CCCCN)NC(=O)[C@@H](CCCNC(=N)N)NC(=O)[C@@H](Cc1ccccc1)NC(=O)[C@@H](CCCNC(=N)N)NC(=O)[C@@H](CCCCN)NC(=O)[C@@H](Cc1ccccc1)NC(=O)[C@@H](CCCNC(=N)N)NC(=O)CN)C(=O)N[C@H](CO)C(N)=O [D-BMAP18] (H-G[dR][dF][dK][dR][dF][dR][dK][dK][dF][dK][dK][dL][dF][dK][dK][dL][dS]-NH2),trend between dose and macroscopic lung damage,P. aeruginosa RP73,not statistically significant
same,MIC90,P. aeruginosa,16 µg/mL
same,MIC,S. maltophilia SM103; [1],4 µg/mL
same,MBC,S. maltophilia SM103; [2],4 µg/mL
same,MIC,S. maltophilia SM106; [1],32 µg/mL
same,MBC,S. maltophilia SM106; [2],32 µg/mL
same,MIC,S. maltophilia SM110; [1],4 µg/mL
same,MBC,S. maltophilia SM110; [2],4 µg/mL
same,MIC,S. maltophilia SM105; [1],8 µg/mL
same,MBC,S. maltophilia SM105; [2],8 µg/mL
same,MIC,S. maltophilia SM136; [1],8 µg/mL
same,MBC,S. maltophilia SM136; [2],16 µg/mL
same,MIC,S. maltophilia SM122; [1],16 µg/mL
same,MBC,S. maltophilia SM122; [2],16 µg/mL
same,MIC,S. maltophilia SM126; [1],16 µg/mL
same,MBC,S. maltophilia SM126; [2],32 µg/mL
same,MIC,S. maltophilia SM130; [1],8 µg/mL
same,MBC,S. maltophilia SM130; [2],16 µg/mL
same,MIC,S. maltophilia SM143; [1],8 µg/mL
same,MBC,S. maltophilia SM143; [2],8 µg/mL
same,MIC,S. maltophilia SM123; [1],16 µg/mL
same,MBC,S. maltophilia SM123; [2],16 µg/mL
same,MIC,S. maltophilia SM120; [1],8 µg/mL
same,MBC,S. maltophilia SM120; [2],16 µg/mL
same,MIC,S. maltophilia SM139; [1],8 µg/mL
same,MBC,S. maltophilia SM139; [2],8 µg/mL
same,MIC,S. aureus SA5,>32 µg/mL
same,MIC,S. aureus SA3,>32 µg/mL
same,MIC,S. aureus SA7,>32 µg/mL
same,MIC,S. aureus SA4,>32 µg/mL
same,MIC,S. aureus SA1,>32 µg/mL
